Test results: patent publication US20030125283A1, “Therapy of proliferative disorders by direct irradiation of cell nuclei with tritiated nuclear targetting agents” (priority 2002, published 2003)

Experiments:
[1] = system: 4047 colon cancer cells, BT-20 and MCF-7 breast cancer cell lines; test: Killing of tumor cells in vitro, cell counts and trypan blue viability; assay type: cell-based, rat (4047), human (BT-20
Procedure: In-vitro experiments were performed using cultured 4047 colon cancer cells as described in Gatenby, R A and Taylor D D (1990) Cancer Res. 50: 7997-8001. 4047 cells (2×10^4) were placed in each well of a 6-well plate and incubated overnight in 1 ml of RPMI-1640 media with 10% fetal bovine serum (FBS). The cells were divided into 4 groups as follows:
Group 4: incubated in unlabelled thymidine at concentrations 1, 2, 3, and 4 mM (so that concentration of thymidine was identical to that of the labeled thymidine in Group 3).
Each group was incubated for 24 hours and then washed 3 times in sterile physiologic saline (PBS). One milliliter of unlabelled media was added and the cells incubated for an additional 48 hours. Subsequently, the cells were washed with PBS, lifted with trypsin, and counted with a hematocytometer. Percent cell viability was determined by exclusion of trypan blue. All measurements were performed in triplicate. Once a dose-response curve was established in the 4047 cell line, identical experiments were conducted with the BT-20 and MCF-7 breast cancer cell lines.

[2] = system: BT20 human breast cancer tumors; test: Efficacy of a multiple dose regimen, intratumoral versus i.v. (Example 9); assay type: in vivo, female nude mice
Procedure: To accomplish this, the superposition method of Sharget and Yu, supra, is used to extend the two compartment pharmacokinetic model presented in Example 6 from the single dose to the multidose case. […] Using the superposition method, the maximum and minimum of the multi-dose regimen can be averaged together to give an estimate of the mean concentration in the tumor during multiple injections (Sharget and Yu, supra).
This dose regimen is tested experimentally as follows.
60 4-6 weeks old female nude mice in 2 groups of 30 mice are used. Each group of 30 mice is further divided into two subgroups (10 control mice and 20 treatment mice). As before, the treatment mice will be divided into subgroups that consist of similar distribution of tumor volumes. In each treatment subgroup, 10×10^6 BT20 human breast cancer cells are inoculated subcutaneously in flanks of the mice as in Example 4. […] Tumors are grown to 300-500 mm^3 in volume.
The mice from one treatment subgroup receive an intratumoral injection of 16 μCi/20 μl normal saline (a dose of 32 μCi/gram of tumor). The dose is repeated every 7 days for a total of 3 doses.

[3] = system: Human BT-20 breast cancer tumors; test: Preliminary in vivo dose-response curve, single intratumoral injections (Example 8); design: species or system Nu/Nu female nude mice; details: single intratumoral injection; theoretical
Text: Six experimental groups of 18 4-6 week old Nu/Nu female nude mice (Charles River Laboratory, Wilmington, Mass.) are used. In each of the six groups an additional group of 6 mice serves as an uninoculated control. Thus the total number of experimental mice is 108 and total number of uninoculated control mice is 36.
Each experimental group is then divided into two subgroups: one treatment subgroup of 12 mice and one untreated (but inoculated) control subgroup of six mice. […] Because the tumors have variable growth rates, subgroups are chosen such that the mean tumor volume and standard deviation are similar for each subgroup. […]
The mice are monitored daily and the tumors measured daily by microcaliper for a minimum of 3 weeks or until tumor re-growth begins. Tumor volumes are calculated as in Example 2. Three daily tumor volumes are measured for the first group so that the error in the volume measurement can be determined as in Example 4. The mean volumes and standard deviations are calculated and growth rate curves are monitored during the experiment. The data are expressed as percent difference of the tumor volume at any given time point to its pre-injection volume.
Tumor volume data is analyzed as described above in the in Example 4 by calculating percent tumor reduction and initial tumor volume. Systemic toxicity is not directly measured, but is monitored as described above in Example 4. […]

[4] = mouse, in vivo
Procedure: In the treatment and control groups, 10×10^6 BT-20 human breast cancer cells are inoculated subcutaneously into the flanks of the mice. Animal weights are recorded daily and animals are closely monitored for signs of illness. Approximate tumor volumes are measured every other day using calipers to measure the height (H), width (W), and length (L) of each tumor. Tumor volumes are calculated according to the formula for volume of an ellipsoid V=πHWL/6. Tumors grow to 300-500 mm^3 in approximately 3-4 weeks after inoculation. A set of 6 measurements per day is made on a single tumor in the control group on one day of each week to determine the standard deviation versus volume in the volume measurements.
Tumor growth is monitored for a total of 4 weeks, whereupon the mice are sacrificed and the tumors and other tissue are harvested.
Lines are drawn along the anterior-posterior length of the harvested tumors. In addition, the top, left and right of the harvested tumors is marked. […] A portion of the sample in is placed in Hionic-Fluor LSC cocktail and the radioactivity counted in a scintillation counter. […]
Ten to fifteen microliters of the dissolved tissue or is spotted on a silica gel TLC plate, and the plate is placed in a chromatography chamber containing ˜200 ml of eluant so the dissolved tissue sample is just above the eluant surface. […] The radioactivity is counted in the scintillation counter. […]

BT-20 tumor xenografts = test: Reduction in tumor volume in the half-life study (Example 7); assay type: in vivo, Nu/Nu female nude mice; details: each treatment subgroup, intratumoral 4 to 50 μCi/g tumor
Procedure: BT-20 tumor cells (10 million cells in 0.2 ml PBS) are inoculated into the right flank of each mouse as in Example 4 above. The tumors are grown to volumes of 300-500 mm^3 over the course of 3-4 weeks.
After tumors in all mice have reached the required 300-500 mm^3 volume, each group of 60 is divided into ten subgroups of six animals each.
Reduction in tumor volume is estimated as in Example 4 for each treatment subgroup over the course of the experiment. The data is analyzed by calculating the percentage of tumor reduction as in Example 4. The error in this measurement is determined from the measured standard deviation and the standard formula for calculating the error for a ratio given above in Equation 1. Systemic toxicity is not directly measured, but is monitored as described above in Example 4.

[5] = Caro, supra; cited from earlier work

With Cc1cn([C@H]2C[C@H](O)[C@@H](CO)O2)c(=O)[nH]c1=O [Unlabelled thymidine, thymidine, reference compound] the “effect on tumor growth” value ([1]; unlabelled thymidine 1, 2, 3, and 4 mM, 24 hours incubation, then 48 hours in unlabelled media) was “no effect on tumor growth”.
For Cc1cn([C@H]2C[C@H](O)[C@@H](CO)O2)c(=O)[nH]c1=O [^3H-thymidine], the “r, tumor regression” value ([2]; i.v. injection 16 μCi (~800 μCi/kg body wt.) once a week for three weeks, after three doses) was “approximately 0.8”, the “r, tumor regression” value ([2]; intratumoral 16 μCi/20 μl saline (32 μCi/gram of tumor) every 7 days, 3 doses) was “approximately zero” and the “ED90, minimal effective dose for eradicating tumors in 90% of the treated mice” value [3] was 16 μCi/g tumor. For the same compound, the “share of injected dose retained in the tumor” value [4] was “about 10%”, the antitumor effect ([1]; 0.1 μCi/ml (concentration used only with 4047 cells)) was “significant antitumor effect” and the “viable tumor cells identified” value ([1]; populations exposed to 1.0 μCi/ml or greater, in most experiments) was “few viable tumor cells”. For the same compound, the tumor volume (BT-20 tumor xenografts) was “significant reduction in tumor volume”.
With [3H]O[3H] [^3H-water, reference compound] the cytotoxicity ([1]; 0.1-3.0 μCi/ml media, 24 hours incubation, then 48 hours in unlabelled media, ^3H-water effect particularly above 1 μCi/ml, ^3H-thymidine compared with ^3H-water at each dose (p<<0.01)) was “slight cytotoxicity”.
For [3H] [tritium], the effective biological half-life [5] is listed as “approximately 12 days”.
